Laboratory results reported in US20220062240A1, “METHODS OF TREATING CANCER USING A CLK INHIBITOR” (BioSplice Therapeutics, Inc., priority 2018, published 2022).
Read-outs that look alike come from different tables or passages of the source.

Key:
Format in all cases: cell-based
BT-549 = assay: CellTiter-Glo Viability Assay, breast cancer; conditions: Homo sapiens, 96 h; BT-549, breast cancer, four days; read-out: EC50
CAMA1 = assay: CellTiter-Glo Viability Assay, breast cancer; conditions: Homo sapiens, CAMA-1, 96 h; CAMA1, breast cancer, four days; read-out: EC50
DU4475 = assay: CellTiter-Glo Viability Assay, breast cancer; conditions: Homo sapiens, DU-4475, 96 h; DU4475, breast cancer, four days; read-out: EC50
HCC1599 = assay: CellTiter-Glo Viability Assay, breast cancer; conditions: Homo sapiens, 96 h; HCC1599, breast cancer, four days; read-out: EC50
MCF7 = assay: CellTiter-Glo Viability Assay, breast cancer; conditions: Homo sapiens, 96 h; MCF7, breast cancer, four days; read-out: EC50
MDA-MB-231-Luc = assay: CellTiter-Glo Viability Assay, breast cancer; conditions: Homo sapiens, 96 h; MDA-MB-231-Luc, breast cancer, four days; read-out: EC50
T47D = assay: CellTiter-Glo Viability Assay, breast cancer; conditions: Homo sapiens, 96 h, breast cancer, four days, read-out: EC50
ZR-75-1 = assay: CellTiter-Glo Viability Assay, breast cancer; conditions: Homo sapiens, 96 h; ZR-75-1, breast cancer, four days; read-out: EC50
all 50 cell lines = assay: CellTiter-Glo Viability Assay, average across all cell lines; conditions: Homo sapiens; across all 50 cell lines; read-out: average EC50 for inhibition of cancer cell proliferation
Outline: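 Luminescent ATP read-out (CellTiter-Glo) after a 4-day compound exposure at 37° C served as the viability measure. Cells were seeded at 300-3,000/well, compound wells run in duplicate against DMSO controls, and EC50 values came from fitted dose-response curves.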

[1] = test system: colorectal cancer (6 cell lines); assay: CellTiter-Glo Viability Assay, colorectal cancer; conditions: Homo sapiens, inhibition of cancer cell proliferation
[2] = test system: haematopoietic & lymphoid tumors (13 cell lines); assay: CellTiter-Glo Viability Assay, haematopoietic & lymphoid tumors; conditions: Homo sapiens, inhibition of cancer cell proliferation
[3] = test system: liver cancer (3 cell lines); assay: CellTiter-Glo Viability Assay, liver cancer; conditions: Homo sapiens, inhibition of cancer cell proliferation
[4] = test system: lung cancer (4 cell lines); assay: CellTiter-Glo Viability Assay, lung cancer; conditions: Homo sapiens, inhibition of cancer cell proliferation
[5] = test system: ovarian cancer (4 cell lines); assay: CellTiter-Glo Viability Assay, ovarian cancer; conditions: Homo sapiens, inhibition of cancer cell proliferation
[6] = test system: pancreatic cancer (8 cell lines); assay: CellTiter-Glo Viability Assay, pancreatic cancer; conditions: Homo sapiens, inhibition of cancer cell proliferation
[7] = test system: prostate cancer (5 cell lines); assay: CellTiter-Glo Viability Assay, prostate cancer; conditions: Homo sapiens
[8] = SW480 cell line, read-out: Colorectal cancer, EC50 (μM) SW480
[9] = DND41, DND-41 cell line, read-out: Haematopoietic & Lymphoid tumors, EC50 (μM) DND-41
[10] = MV4-11, MV-4-11 cell line, read-out: Haematopoietic & Lymphoid tumors, EC50 (μM) MV-4-11
[11] = Rec1, REC-1 cell line, read-out: Haematopoietic & Lymphoid tumors, EC50 (μM) REC-1
[12] = SU-DHL-4, SUDHL4 cell line, read-out: Haematopoietic & Lymphoid tumors, EC50 (μM) SUDHL4
[13] = HL-60 cell line, read-out: Haematopoietic & Lymphoid tumors, EC50 (μM) HL-60
[14] = JM1 cell line, read-out: Haematopoietic & Lymphoid tumors, EC50 (μM) JM1
[15] = JURKAT, Clone E6-1 cell line, read-out: Haematopoietic & Lymphoid tumors, EC50 (μM) JURKAT, Clone E6-1
[16] = JeKo-1 cell line, read-out: Haematopoietic & Lymphoid tumors, EC50 (μM) JeKo-1
[17] = KASUMI-1 cell line, read-out: Haematopoietic & Lymphoid tumors, EC50 (μM) KASUMI-1
[18] = Loucy cell line, read-out: Haematopoietic & Lymphoid tumors, EC50 (μM) Loucy
[19] = MOLT-4 cell line, read-out: Haematopoietic & Lymphoid tumors, EC50 (μM) MOLT-4
[20] = TF-1 cell line, read-out: Haematopoietic & Lymphoid tumors, EC50 (μM) TF-1
[21] = TOLEDO cell line, read-out: Haematopoietic & Lymphoid tumors, EC50 (μM) TOLEDO
[22] = SNU-398, SNU398 cell line, read-out: Liver cancer, EC50 SNU398
[23] = HEPG2 cell line, read-out: Liver cancer, EC50 HEPG2
[24] = PLC/PRF/5 cell line, read-out: Liver cancer, EC50 PLC/PRF/5
[25] = A-427, A427 cell line, read-out: Lung cancer, EC50 (μM) A427
[26] = HCC78, HCC-78 cell line, read-out: Lung cancer, EC50 (μM) HCC-78
[27] = NCI-H460 cell line, read-out: Lung cancer, EC50 (μM) NCI-H460
[28] = NCI-H522 cell line, read-out: Lung cancer, EC50 (μM) NCI-H522
[29] = PA-1, PA1 cell line, read-out: Ovarian cancer, EC50 (μM) PA1
[30] = TOV112D, TOV-112D cell line, read-out: Ovarian cancer, EC50 (μM) TOV-112D
[31] = OV-90 cell line, read-out: Ovarian cancer, EC50 (μM) OV-90
[32] = OVCAR-3 cell line, read-out: Ovarian cancer, EC50 (μM) OVCAR-3
[33] = BXPC-3, BxPC3 cell line, read-out: Pancreatic cancer, EC50 BxPC3
[34] = CAPAN-1, Capan1 cell line, read-out: Pancreatic cancer, EC50 Capan1
[35] = Capan-2, Capan2 cell line, read-out: Pancreatic cancer, EC50 Capan2
[36] = MIA PaCa-2 cell line, read-out: Pancreatic cancer, EC50 MIA PaCa-2
[37] = PANC 05.04 cell line, read-out: Pancreatic cancer, EC50 PANC 05.04
[38] = PANC-1 cell line, read-out: Pancreatic cancer, EC50 PANC-1
[39] = UPAFII cell line, read-out: Pancreatic cancer, EC50 UPAFII
[40] = DU-145, read-out: Prostate cancer EC50 Du-145
[41] = PC-3, PC3 cell line, inhibition of cancer cell proliferation, read-out: Prostate cancer EC50 PC3
[42] = 22Rv1 cell line, inhibition of cancer cell proliferation, read-out: Prostate cancer EC50 22Rv1
[43] = LNCap clone FGC cell line, inhibition of cancer cell proliferation, read-out: Prostate cancer EC50 LNCap clone FGC
[44] = VCaP (Sigma) cell line, inhibition of cancer cell proliferation, read-out: Prostate cancer EC50 VCaP (Sigma)

With `O=C(Nc1ccc(OCCN2CCCC2)cc1)c1n[nH]cc1/C=C/c1cccnc1` [Compound 92] the EC50 (BT-549) was 5.51 µM, the EC50 (CAMA1) was 8.71 µM and the EC50 (DU4475) was 6.04 µM. The EC50 (HCC1599) was 0.312 µM, the EC50 (MCF7) was greater than 10 µM and the EC50 (MDA-MB-231-Luc) was greater than 10 µM. The EC50 (T47D) was 0.867 µM, the EC50 (ZR-75-1) was greater than 10 µM and the EC50 (all 50 cell lines) was 6.83 µM. For the same molecule, the EC50 ([1]; HCT-116, HCT116 cell line, read-out: Colorectal cancer, EC50 (μM) HCT116) was 6.22 µM, the EC50 ([1]; HT-29, HT29 cell line, read-out: Colorectal cancer, EC50 (μM) HT29) was greater than 10 µM and the EC50 ([1]; SW-620, SW620 cell line, read-out: Colorectal cancer, EC50 (μM) SW620) was 5.35 µM. For the same molecule, the EC50 ([1]; DLD-1 cell line, read-out: Colorectal cancer, EC50 (μM) DLD-1) was 2.53 µM, the EC50 ([1]; SW48 cell line, read-out: Colorectal cancer, EC50 (μM) SW48) was 1.87 µM and the EC50 [1, 8] was greater than 10 µM. For the same molecule, the EC50 [2, 9] was greater than 10 µM, the EC50 [2, 10] was 0.675 µM and the EC50 [2, 11] was 2.25 µM. The EC50 [2, 12] was 4.87 µM, the EC50 [2, 13] was 7.97 µM and the EC50 [2, 14] was 3.24 µM. The EC50 [2, 15] was 3.81 µM, the EC50 [2, 16] was 2.18 µM and the EC50 [2, 17] was 1.63 µM. It also gave an EC50 [2, 18] of 3.96 µM, an EC50 [2, 19] of 6.76 µM and an EC50 [2, 20] of 6.97 µM. The EC50 [2, 21] was 2.51 µM, the EC50 [3, 22] was 4.92 µM and the EC50 [3, 23] was greater than 10 µM. For the same molecule, the EC50 [3, 24] was greater than 10 µM, the EC50 [4, 25] was 8.56 µM and the EC50 [4, 26] was greater than 10 µM. For the same molecule, the EC50 [4, 27] was greater than 10 µM, the EC50 [4, 28] was 7.15 µM and the EC50 [5, 29] was 9.92 µM. It also gave an EC50 [5, 30] of 7.05 µM, an EC50 [5, 31] greater than 10 µM and an EC50 [5, 32] of 8.42 µM. It also gave an EC50 [6, 33] greater than 10 µM, an EC50 [6, 34] greater than 10 µM and an EC50 [6, 35] greater than 10 µM. The EC50 [6, 36] was 5.86 µM, the EC50 [6, 37] was greater than 10 µM and the EC50 [6, 38] was greater than 10 µM. For the same molecule, the EC50 [6, 39] was greater than 10 µM, the EC50 [7, 40] was greater than 10 µM and the EC50 [7, 41] was greater than 10 µM. It also gave an EC50 [7, 42] of 0.867 µM, an EC50 [7, 43] of 9.15 µM and an EC50 [7, 44] of 5.58 µM.

Molecule `Cc1n[nH]c2ccc(-c3cncc(N[C@H]4CC[C@H](O)CC4)n3)cc12` [Compound 65] has an EC50 (BT-549) of 0.414 µM, an EC50 (CAMA1) of 0.457 µM and an EC50 (DU4475) of 0.114 µM. For the same molecule, the EC50 (HCC1599) was 0.209 µM, the EC50 (MCF7) was 0.989 µM and the EC50 (MDA-MB-231-Luc) was 0.106 µM. For the same molecule, the EC50 (T47D) was 0.886 µM, the EC50 (ZR-75-1) was 0.617 µM and the EC50 (all 50 cell lines) was 0.615 µM. For the same molecule, the EC50 [1, 8] was 0.456 µM, the EC50 [2, 9] was 0.635 µM and the EC50 [2, 10] was 0.008 µM. It also gave an EC50 [2, 11] of 0.085 µM, an EC50 [2, 12] of 0.309 µM and an EC50 [2, 13] of 1.01 µM. The EC50 [2, 14] was 0.319 µM, the EC50 [2, 15] was 0.78 µM and the EC50 [2, 16] was 0.243 µM. The EC50 [2, 17] was 0.184 µM, the EC50 [2, 18] was 0.576 µM and the EC50 [2, 19] was 0.715 µM. For the same molecule, the EC50 [2, 20] was 0.392 µM, the EC50 [2, 21] was 0.141 µM and the EC50 [3, 22] was 0.132 µM. The EC50 [3, 23] was 0.667 µM, the EC50 [3, 24] was 1.26 µM and the EC50 [4, 25] was 0.26 µM. For the same molecule, the EC50 [4, 26] was 1.19 µM, the EC50 [4, 27] was 0.81 µM and the EC50 [4, 28] was 0.379 µM. The EC50 [5, 29] was 0.146 µM, the EC50 [5, 30] was 0.437 µM and the EC50 [5, 31] was 0.918 µM. It also gave an EC50 [5, 32] of 0.645 µM, an EC50 [6, 33] of 0.678 µM and an EC50 [6, 34] of 0.353 µM. For the same molecule, the EC50 [6, 35] was 0.76 µM, the EC50 [6, 36] was 0.539 µM and the EC50 [6, 37] was 1.28 µM. The EC50 [6, 38] was 1.49 µM, the EC50 [6, 39] was 0.594 µM and the EC50 [7, 40] was 0.665 µM. The EC50 [7, 41] was 0.557 µM, the EC50 [7, 42] was 0.803 µM and the EC50 [7, 43] was 0.508 µM. The EC50 [7, 44] was 2.94 µM.
